Test results published in patent US12440431B2, “Cosmetic comprising ultraviolet wavelength conversion substance” (Shiseido Company, Ltd., priority 2019, dated 2025).

What was measured:
[1] = tested on: Human dermal fibroblasts; experiment: Restoration of cell activity decreased by prior UV irradiation (AlamarBlue); format: cell-based; details: pre-irradiation 400 mJ/cm^2 without substance, then UV 0-200 mJ/cm^2 through 0.4% or 2% C-phycocyanin (equivalent effect), FIG. 5
Description: (§1) 1. Human dermal fibroblasts and human skin keratinocytes purchased from Kurabo Industries Ltd. were used. A cell suspension (1 mL) stored in liquid nitrogen was thawed in a water bath (37° C.) to an extent that small ice pellets remained, and then diluted with 9 mL of warm medium. 2. The diluted suspension was mixed gently and then transferred to a T75 flask and incubated overnight at 37° C. 3. The next day, the medium was replaced with 10 mL of fresh medium. 4. The medium was replaced periodically (once every 2 days for fibroblasts and once every 2 to 3 days for keratinocytes) and cell proliferation was continued. Meanwhile, the cells were observed using a microscope, and it was confirmed that the cells grew in the correct form. 5. After the cells reached about 80% confluence, the cells were passaged. The cells were passaged by washing the cells once with 10 mL of warm PBS, adding 5 mL of warm trypsin to a T75 flask, covering the bottom of the flask with a trypsin solution, followed by aspirating at room temperature for 1 minute. 6. The flask was allowed to stand in an oven at 37° C. for (maximum) 2 minutes for fibroblasts and (maximum) 7 minutes for keratinocytes. The cells were observed using a microscope and confirmed to be small and oval. 7. Thereafter, the side of the T75 flask was lightly tapped to release the cells. […]

[2] = tested on: Human dermal fibroblasts; experiment: Cell activity (AlamarBlue) of cells irradiated with UV through a UV wavelength conversion substance solution; format: cell-based; details: UV dose 0-100 mJ/cm^2, FIG. 3
Description: The UV wavelength conversion substances (1) and (2) were dissolved in water to prepare solutions having a concentration of 1% or 5%.
The UV wavelength conversion substances (3) and (4) were dispersed in alcohol to prepare 5% and 10% dispersions.
as §1, with “6.” for “6. The flask was allowed to stand in an oven at 37° C. for (maximum) 2 minutes for fibroblasts and (maximum) 7 minutes for keratinocytes. The cells were observed using a microscope and confirmed to be small and oval. 7. Thereafter, the side of the T75 flask was lightly tapped to release the cells.”

## C-phycocyanin
[1]
  cell activity (relative fluorescence intensity) after prior decrease by UV: cell activity was recovered
[2]; 0.4% C-phycocyanin solution
  cell activity (relative fluorescence intensity): the decrease in cell activity was suppressed
[2]; 2% C-phycocyanin solution
  cell activity (relative fluorescence intensity): the cell activity was even increased compared to the case where UV irradiation was not carried out
